How the values were obtained:
Hep 3B2 [1] = assay: Antitumor activity against human Hep3B cells xenografted in BALB/c nude mouse assessed as tumor growth inhibition at 100 mg/kg, po relative to control; assay type: functional; conditions: read-out: TGI
[2] = target: T1, Fibroblast growth factor receptor 1 (Homo sapiens, UniProt P11362); assay: Inhibition of FGFR1 (unknown origin) incubated for 30 mins by ADP-Glo assay
[3] = target: T2, Fibroblast growth factor receptor 3 (Homo sapiens, UniProt P22607); assay: Inhibition of FGFR3 (unknown origin) incubated for 30 mins by ADP-Glo assay
Huh-7 [4] = assay: Antiproliferative activity against human Huh-7 cells expressing FGFR2 assessed as reduction in cell viability incubated for 48 hrs by MTT assay; assay type: functional, cell-based; conditions: Huh-7, 48 h
Huh-7 [5] = assay: Antiproliferative activity against human Huh-7 cells expressing FGFR3 assessed as reduction in cell viability incubated for 48 hrs by MTT assay; assay type: functional, cell-based; conditions: Huh-7, 48 h
Hep 3B2 [6] = assay: Antiproliferative activity against human Hep3B cells expressing FGFR2 assessed as reduction in cell viability incubated for 48 hrs by MTT assay; assay type: functional, cell-based
Hep 3B2 [7] = assay: Antiproliferative activity against human Hep3B cells expressing FGFR3 assessed as reduction in cell viability incubated for 48 hrs by MTT assay; assay type: functional, cell-based
[8] = target: T1, Fibroblast growth factor receptor 1; assay: Inhibition of FGFR1 (unknown origin)
[9] = target: T3, Fibroblast growth factor receptor 2 (Homo sapiens, UniProt P21802); assay: Inhibition of FGFR2 (unknown origin)
[10] = target: T2, Fibroblast growth factor receptor 3; assay: Inhibition of FGFR3 (unknown origin)
[11] = Half life in human; assay type: ADME
[12] = target: T1, Fibroblast growth factor receptor 1; assay: Inhibition of N-terminal 6xHis-tagged human FGFR1 (456 to 765 residues) transfected in Escherichia coli Rossetta cells incubated for 30 mins by ADP-Glo assay
[13] = target: T3, Fibroblast growth factor receptor 2; assay: Inhibition of N-terminal 6xHis-tagged human FGFR2 (453 to 770 residues) transfected in Escherichia coli Rossetta cells incubated for 30 mins by ADP-Glo assay
[14] = target: T2, Fibroblast growth factor receptor 3; assay: Inhibition of N-terminal 6xHis-tagged human FGFR3 (450 to 758 residues) transfected in Escherichia coli Rossetta cells incubated for 30 mins by ADP-Glo assay
[15] = target: Fibroblast growth factor receptor 4 (Homo sapiens, UniProt P22455, C477A/C552A); assay: Inhibition of FGFR4 C552A/C477A double mutant (unknown origin)
Huh-7 [16] = assay: Antiproliferative activity against FGF19/FGFR4 dependent human Huh-7 cells assessed as reduction in cell viability; assay type: functional, cell-based
Hep 3B2 [17] = assay: Antiproliferative activity against FGF19/FGFR4 dependent human Hep3B cells assessed as reduction in cell viability; assay type: functional, cell-based

T1 sequence (P11362 whole entry): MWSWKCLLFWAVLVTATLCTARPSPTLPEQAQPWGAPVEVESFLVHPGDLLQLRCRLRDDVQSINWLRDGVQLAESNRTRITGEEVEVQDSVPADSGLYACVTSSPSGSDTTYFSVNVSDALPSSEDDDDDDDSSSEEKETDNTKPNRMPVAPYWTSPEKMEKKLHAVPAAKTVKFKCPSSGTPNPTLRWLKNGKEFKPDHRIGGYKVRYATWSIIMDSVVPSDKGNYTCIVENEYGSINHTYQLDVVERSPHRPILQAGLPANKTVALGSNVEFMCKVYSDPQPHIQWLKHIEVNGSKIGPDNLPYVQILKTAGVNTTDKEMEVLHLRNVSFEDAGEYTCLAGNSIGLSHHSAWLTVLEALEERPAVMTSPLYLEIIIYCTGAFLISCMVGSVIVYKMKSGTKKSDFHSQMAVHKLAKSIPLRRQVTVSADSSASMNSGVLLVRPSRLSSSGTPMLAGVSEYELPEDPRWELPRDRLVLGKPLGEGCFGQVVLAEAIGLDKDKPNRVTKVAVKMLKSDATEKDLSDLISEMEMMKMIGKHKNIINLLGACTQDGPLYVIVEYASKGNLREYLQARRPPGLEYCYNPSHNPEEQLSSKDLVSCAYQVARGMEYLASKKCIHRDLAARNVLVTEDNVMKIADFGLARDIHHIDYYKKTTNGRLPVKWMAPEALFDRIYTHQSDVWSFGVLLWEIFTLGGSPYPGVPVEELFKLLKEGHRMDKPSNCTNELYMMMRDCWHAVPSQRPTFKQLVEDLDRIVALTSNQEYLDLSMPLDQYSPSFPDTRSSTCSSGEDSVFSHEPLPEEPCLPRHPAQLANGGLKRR
T2 sequence (P22607 whole entry): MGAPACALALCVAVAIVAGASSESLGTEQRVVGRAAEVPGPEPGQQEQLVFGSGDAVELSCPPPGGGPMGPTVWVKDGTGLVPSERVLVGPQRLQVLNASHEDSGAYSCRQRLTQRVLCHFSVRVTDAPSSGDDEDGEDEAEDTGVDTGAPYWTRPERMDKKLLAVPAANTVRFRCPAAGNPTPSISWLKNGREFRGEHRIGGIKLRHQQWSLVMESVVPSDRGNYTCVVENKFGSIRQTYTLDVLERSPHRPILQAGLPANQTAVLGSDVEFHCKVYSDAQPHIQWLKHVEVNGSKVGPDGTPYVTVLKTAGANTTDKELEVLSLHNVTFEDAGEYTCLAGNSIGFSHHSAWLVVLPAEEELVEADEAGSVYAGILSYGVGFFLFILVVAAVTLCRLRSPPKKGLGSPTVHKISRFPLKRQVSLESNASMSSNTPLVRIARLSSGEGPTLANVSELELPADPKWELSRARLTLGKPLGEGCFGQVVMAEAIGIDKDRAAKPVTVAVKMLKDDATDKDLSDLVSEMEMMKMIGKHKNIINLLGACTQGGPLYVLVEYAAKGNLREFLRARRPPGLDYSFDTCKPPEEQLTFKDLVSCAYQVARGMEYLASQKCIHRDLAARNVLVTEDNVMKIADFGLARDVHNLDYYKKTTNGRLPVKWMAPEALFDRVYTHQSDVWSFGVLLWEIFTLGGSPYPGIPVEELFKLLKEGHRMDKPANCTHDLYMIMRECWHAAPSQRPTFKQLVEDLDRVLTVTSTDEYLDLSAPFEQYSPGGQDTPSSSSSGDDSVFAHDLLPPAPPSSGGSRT
T3 sequence (P21802 whole entry): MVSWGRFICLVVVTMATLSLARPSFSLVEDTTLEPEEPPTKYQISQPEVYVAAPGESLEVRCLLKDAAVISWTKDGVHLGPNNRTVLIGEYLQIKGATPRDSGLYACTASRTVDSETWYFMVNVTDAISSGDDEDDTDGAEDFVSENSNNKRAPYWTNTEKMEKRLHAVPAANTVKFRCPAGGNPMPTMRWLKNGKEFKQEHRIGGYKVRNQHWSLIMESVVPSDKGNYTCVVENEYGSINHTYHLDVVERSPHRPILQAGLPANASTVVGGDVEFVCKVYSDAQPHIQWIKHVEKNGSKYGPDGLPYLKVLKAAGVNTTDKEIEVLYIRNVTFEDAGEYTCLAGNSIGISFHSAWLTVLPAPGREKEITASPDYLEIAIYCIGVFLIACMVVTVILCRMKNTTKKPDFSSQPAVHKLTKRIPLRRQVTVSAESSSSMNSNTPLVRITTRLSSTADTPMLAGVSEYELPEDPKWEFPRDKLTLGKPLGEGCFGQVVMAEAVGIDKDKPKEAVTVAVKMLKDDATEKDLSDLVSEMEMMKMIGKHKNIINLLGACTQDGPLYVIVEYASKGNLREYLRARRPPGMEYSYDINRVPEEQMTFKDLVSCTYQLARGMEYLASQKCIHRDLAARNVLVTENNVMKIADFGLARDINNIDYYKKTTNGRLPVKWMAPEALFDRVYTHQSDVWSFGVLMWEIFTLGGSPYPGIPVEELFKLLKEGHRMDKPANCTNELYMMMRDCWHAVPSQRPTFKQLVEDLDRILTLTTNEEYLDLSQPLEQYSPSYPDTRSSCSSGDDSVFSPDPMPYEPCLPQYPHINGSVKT
Fibroblast growth factor receptor 4, sequence (P22455 22-802 C477A/C552A limits assumed): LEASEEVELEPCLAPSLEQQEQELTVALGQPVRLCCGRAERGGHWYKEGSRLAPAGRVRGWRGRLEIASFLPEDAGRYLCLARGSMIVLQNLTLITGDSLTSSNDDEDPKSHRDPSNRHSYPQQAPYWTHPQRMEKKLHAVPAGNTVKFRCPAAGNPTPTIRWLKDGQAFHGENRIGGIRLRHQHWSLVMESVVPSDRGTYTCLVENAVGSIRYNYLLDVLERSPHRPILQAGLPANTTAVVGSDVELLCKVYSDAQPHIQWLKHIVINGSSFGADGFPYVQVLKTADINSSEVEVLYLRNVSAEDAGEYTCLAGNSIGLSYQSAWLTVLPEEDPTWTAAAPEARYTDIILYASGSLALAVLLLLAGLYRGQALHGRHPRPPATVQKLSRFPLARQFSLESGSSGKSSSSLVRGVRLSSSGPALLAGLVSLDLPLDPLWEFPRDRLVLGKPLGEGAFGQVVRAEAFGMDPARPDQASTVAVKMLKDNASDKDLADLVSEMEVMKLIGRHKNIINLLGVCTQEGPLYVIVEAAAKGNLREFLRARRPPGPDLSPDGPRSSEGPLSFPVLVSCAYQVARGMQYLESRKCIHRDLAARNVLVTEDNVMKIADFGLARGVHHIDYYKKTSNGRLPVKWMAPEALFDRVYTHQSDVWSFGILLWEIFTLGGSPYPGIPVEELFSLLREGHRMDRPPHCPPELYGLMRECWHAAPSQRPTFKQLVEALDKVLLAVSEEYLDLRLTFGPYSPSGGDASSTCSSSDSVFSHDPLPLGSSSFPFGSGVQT

C=CC(=O)Nc1cc(N2CCN(CC)CC2)ccc1Nc1cc(N(C)C(=O)Nc2c(Cl)c(OC)cc(OC)c2Cl)ncn1 [H3B-6527]
inhibition in vivo at 100 mg/kg (Hep 3B2 [1]): 109%

C=CC(=O)Nc1cc(F)cc(Cl)c1Nc1nc(C)c(OCc2c(F)c(OC)cc(OC)c2F)c(C)n1
IC50 [2]: > 50 µM | IC50 [3]: > 30 µM | IC50 (Huh-7 [4]): 7.1 µM | IC50 (Huh-7 [5]): 12.6 µM | IC50 (Hep 3B2 [6]): 900 nM | IC50 (Hep 3B2 [7]): 4.5 µM

C=CC(=O)N[C@H]1CCOC[C@H]1Nc1ncc2cc(-c3c(Cl)c(OC)cc(OC)c3Cl)ccc2n1 [FISOGATINIB]
IC50 [8]: 591 nM | IC50 [9]: 493 nM | IC50 [10]: 150 nM | half-life [11]: ~1020 min

C=CC(=O)Nc1ccccc1Nc1ncc2c(n1)N(CCCN1CCN(C(=O)C=C)CC1)C(=O)N(c1c(Cl)c(OC)cc(OC)c1Cl)C2
IC50 [12]: 2580 nM | IC50 [13]: 2410 nM | IC50 [14]: 977 nM | IC50 [15]: 1530 nM

COc1cc(OC)c(Cl)c(-c2ccc3nc(NCCCNC(=O)/C(C#N)=C/C4CC4)ncc3c2)c1Cl
IC50 (Huh-7 [16]): 9.2 µM | IC50 (Hep 3B2 [17]): 9 µM

From ChEMBL document CHEMBL5505951, “Insight into the design of FGFR4 selective inhibitors in cancer therapy: Prospects and challenges” (Eur J Med Chem, 2024)
